{
  "source": "the supplement of paper PMC10307832",
  "test_in_all_cases": "relative viability (nuclei count vs DMSO), 5 days (fraction); higher = more cells survive",
  "key": {"Dovitinib": {"compound": "CN1CCN(c2ccc3nc(-c4c(N)c5c(F)cccc5[nH]c4=O)[nH]c3c2)CC1 [Dovitinib]", "outline": "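Viability was defined as treated-well nuclei divided by vehicle-well nuclei, with the median taken over replicate plates. Cells from lung cancer lines sat overnight at 37 °C in 1536-well plates, received five √10-spaced library-drug doses by pinning on vehicle-anchored plates, and grew 5 days without medium change before one-step fixation, permeabilisation and Hoechst staining, 4× imaging and MetaXpress nuclear counts. Only plates with control CV under 25% and at least one doubling were kept.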"}, "Dovitinib + Bortezomib": {"compound": "CN1CCN(c2ccc3nc(-c4c(N)c5c(F)cccc5[nH]c4=O)[nH]c3c2)CC1 [Dovitinib] + CC(C)C[C@H](NC(=O)[C@H](Cc1ccccc1)NC(=O)c1cnccn1)B(O)O [Bortezomib] (partner 0.002 µM)", "outline": "(§1)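 For relative viability, nuclei counts in treated wells were divided by those in vehicle wells. Lung cancer cell lines had been pin-tool dosed in 1536-well plates the day after seeding and cultured for 5 days, then fixed and stained in one step (final 0.05% Triton X-100, 1% formaldehyde, 1 ug/ml Hoechst) and imaged at 4×. Doses were one drug alone or a fixed anchor-drug dose plus five library-drug doses (not always all listed) in √10 steps, and values are duplicate-plate medians.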"}, "Dovitinib + Navitoclax": {"compound": "CN1CCN(c2ccc3nc(-c4c(N)c5c(F)cccc5[nH]c4=O)[nH]c3c2)CC1 [Dovitinib] + CC1(C)CCC(c2ccc(Cl)cc2)=C(CN2CCN(c3ccc(C(=O)NS(=O)(=O)c4ccc(N[C@H](CCN5CCOCC5)CSc5ccccc5)c(S(=O)(=O)C(F)(F)F)c4)cc3)CC2)C1 [Navitoclax] (partner 0.5 µM)", "outline": "as §1"}, "Dovitinib + Foretinib": {"compound": "CN1CCN(c2ccc3nc(-c4c(N)c5c(F)cccc5[nH]c4=O)[nH]c3c2)CC1 [Dovitinib] + COc1cc2c(Oc3ccc(NC(=O)C4(C(=O)Nc5ccc(F)cc5)CC4)cc3F)ccnc2cc1OCCCN1CCOCC1 [Foretinib] (partner 0.25 µM)", "outline": "as §1"}, "Dovitinib + Lapatinib": {"compound": "CN1CCN(c2ccc3nc(-c4c(N)c5c(F)cccc5[nH]c4=O)[nH]c3c2)CC1 [Dovitinib] + CS(=O)(=O)CCNCc1ccc(-c2ccc3ncnc(Nc4ccc(OCc5cccc(F)c5)c(Cl)c4)c3c2)o1 [Lapatinib] (partner 2 µM)", "outline": "as §1"}, "Dovitinib + Pictilisib": {"compound": "CN1CCN(c2ccc3nc(-c4c(N)c5c(F)cccc5[nH]c4=O)[nH]c3c2)CC1 [Dovitinib] + CS(=O)(=O)N1CCN(Cc2cc3nc(-c4cccc5[nH]ncc45)nc(N4CCOCC4)c3s2)CC1 [Pictilisib] (partner 1 µM)", "outline": "as §1"}, "Dovitinib + Crizotinib": {"compound": "CN1CCN(c2ccc3nc(-c4c(N)c5c(F)cccc5[nH]c4=O)[nH]c3c2)CC1 [Dovitinib] + C[C@@H](Oc1cc(-c2cnn(C3CCNCC3)c2)cnc1N)c1c(Cl)ccc(F)c1Cl [Crizotinib] (partner 1 µM)", "outline": "as §1"}, "Dovitinib + Linsitinib": {"compound": "CN1CCN(c2ccc3nc(-c4c(N)c5c(F)cccc5[nH]c4=O)[nH]c3c2)CC1 [Dovitinib] + C[C@]1(O)C[C@@H](c2nc(-c3ccc4ccc(-c5ccccc5)nc4c3)c3c(N)nccn32)C1 [Linsitinib] (partner 1 µM)", "outline": "as §1"}, "Dovitinib + Alpelisib": {"compound": "CN1CCN(c2ccc3nc(-c4c(N)c5c(F)cccc5[nH]c4=O)[nH]c3c2)CC1 [Dovitinib] + Cc1nc(NC(=O)N2CCC[C@H]2C(N)=O)sc1-c1ccnc(C(C)(C)C(F)(F)F)c1 [Alpelisib] (partner 2 µM)", "outline": "as §1"}, "Dovitinib + Olaparib": {"compound": "CN1CCN(c2ccc3nc(-c4c(N)c5c(F)cccc5[nH]c4=O)[nH]c3c2)CC1 [Dovitinib] + O=C(c1cc(Cc2n[nH]c(=O)c3ccccc23)ccc1F)N1CCN(C(=O)C2CC2)CC1 [Olaparib] (partner 8 µM)", "outline": "as §1"}},
  "data": [
    {"cell line": "NCI-H1299", "values": [
      {"measurement": "relative viability", "setting": "Dovitinib; 0.02 µM", "value": 0.966},
      {"measurement": "relative viability", "setting": "Dovitinib; 0.06325 µM", "value": 1.03},
      {"measurement": "relative viability", "setting": "Dovitinib; 0.2 µM", "value": 1.03},
      {"measurement": "relative viability", "setting": "Dovitinib; 0.6325 µM", "value": 0.98},
      {"measurement": "relative viability", "setting": "Dovitinib; 2 µM", "value": 1.03},
      {"measurement": "relative viability", "setting": "Dovitinib + Bortezomib; first compound 0.02 µM", "value": 0.977},
      {"measurement": "relative viability", "setting": "Dovitinib + Bortezomib; first compound 0.06325 µM", "value": 1.03},
      {"measurement": "relative viability", "setting": "Dovitinib + Bortezomib; first compound 0.2 µM", "value": 1.06},
      {"measurement": "relative viability", "setting": "Dovitinib + Bortezomib; first compound 0.6325 µM", "value": 1.05},
      {"measurement": "relative viability", "setting": "Dovitinib + Bortezomib; first compound 2 µM", "value": 1.03},
      {"measurement": "relative viability", "setting": "Dovitinib + Navitoclax; first compound 0.02 µM", "value": 1.01},
      {"measurement": "relative viability", "setting": "Dovitinib + Navitoclax; first compound 0.06325 µM", "value": 1.04},
      {"measurement": "relative viability", "setting": "Dovitinib + Navitoclax; first compound 0.2 µM", "value": 1.09},
      {"measurement": "relative viability", "setting": "Dovitinib + Navitoclax; first compound 0.6325 µM", "value": 1.05},
      {"measurement": "relative viability", "setting": "Dovitinib + Navitoclax; first compound 2 µM", "value": 1.08},
      {"measurement": "relative viability", "setting": "Dovitinib + Foretinib; first compound 0.02 µM", "value": 1.11},
      {"measurement": "relative viability", "setting": "Dovitinib + Foretinib; first compound 0.06325 µM", "value": 1.1},
      {"measurement": "relative viability", "setting": "Dovitinib + Foretinib; first compound 0.2 µM", "value": 1.11},
      {"measurement": "relative viability", "setting": "Dovitinib + Foretinib; first compound 0.6325 µM", "value": 1.11},
      {"measurement": "relative viability", "setting": "Dovitinib + Foretinib; first compound 2 µM", "value": 1.06},
      {"measurement": "relative viability", "setting": "Dovitinib + Lapatinib; first compound 0.02 µM", "value": 0.948},
      {"measurement": "relative viability", "setting": "Dovitinib + Lapatinib; first compound 0.06325 µM", "value": 1},
      {"measurement": "relative viability", "setting": "Dovitinib + Lapatinib; first compound 0.2 µM", "value": 0.966},
      {"measurement": "relative viability", "setting": "Dovitinib + Lapatinib; first compound 0.6325 µM", "value": 0.892},
      {"measurement": "relative viability", "setting": "Dovitinib + Lapatinib; first compound 2 µM", "value": 0.966},
      {"measurement": "relative viability", "setting": "Dovitinib + Pictilisib; first compound 0.02 µM", "value": 0.897},
      {"measurement": "relative viability", "setting": "Dovitinib + Pictilisib; first compound 0.06325 µM", "value": 0.8},
      {"measurement": "relative viability", "setting": "Dovitinib + Pictilisib; first compound 0.2 µM", "value": 0.69},
      {"measurement": "relative viability", "setting": "Dovitinib + Pictilisib; first compound 0.6325 µM", "value": 0.626},
      {"measurement": "relative viability", "setting": "Dovitinib + Pictilisib; first compound 2 µM", "value": 0.789},
      {"measurement": "relative viability", "setting": "Dovitinib + Crizotinib; first compound 0.02 µM", "value": 0.941},
      {"measurement": "relative viability", "setting": "Dovitinib + Crizotinib; first compound 0.06325 µM", "value": 0.968},
      {"measurement": "relative viability", "setting": "Dovitinib + Crizotinib; first compound 0.2 µM", "value": 0.915},
      {"measurement": "relative viability", "setting": "Dovitinib + Crizotinib; first compound 0.6325 µM", "value": 0.942},
      {"measurement": "relative viability", "setting": "Dovitinib + Crizotinib; first compound 2 µM", "value": 1.01},
      {"measurement": "relative viability", "setting": "Dovitinib + Linsitinib; first compound 0.02 µM", "value": 0.913},
      {"measurement": "relative viability", "setting": "Dovitinib + Linsitinib; first compound 0.06325 µM", "value": 0.954},
      {"measurement": "relative viability", "setting": "Dovitinib + Linsitinib; first compound 0.2 µM", "value": 0.959},
      {"measurement": "relative viability", "setting": "Dovitinib + Linsitinib; first compound 0.6325 µM", "value": 0.951},
      {"measurement": "relative viability", "setting": "Dovitinib + Linsitinib; first compound 2 µM", "value": 0.976},
      {"measurement": "relative viability", "setting": "Dovitinib + Alpelisib; first compound 0.02 µM", "value": 0.984},
      {"measurement": "relative viability", "setting": "Dovitinib + Alpelisib; first compound 0.06325 µM", "value": 1.02},
      {"measurement": "relative viability", "setting": "Dovitinib + Alpelisib; first compound 0.2 µM", "value": 1.02},
      {"measurement": "relative viability", "setting": "Dovitinib + Alpelisib; first compound 0.6325 µM", "value": 1.04},
      {"measurement": "relative viability", "setting": "Dovitinib + Alpelisib; first compound 2 µM", "value": 1.09},
      {"measurement": "relative viability", "setting": "Dovitinib + Olaparib; first compound 0.02 µM", "value": 0.927},
      {"measurement": "relative viability", "setting": "Dovitinib + Olaparib; first compound 0.06325 µM", "value": 1.01},
      {"measurement": "relative viability", "setting": "Dovitinib + Olaparib; first compound 0.2 µM", "value": 0.982},
      {"measurement": "relative viability", "setting": "Dovitinib + Olaparib; first compound 0.6325 µM", "value": 0.946},
      {"measurement": "relative viability", "setting": "Dovitinib + Olaparib; first compound 2 µM", "value": 1.02}
    ]}
  ]
}
